In patent publication US11255843B2, “Compositions and methods for identifying metabolically active agents” (Northwestern University, priority 2016, dated 2022):
Structures can show the parent of a compound that is named as a salt.

Tests used:
[1] = system: C2C12 myotubes; settings: 62.5 uM DMOG; DMSO-treated controls 22 hrs, p<0.05
Procedure: For PERIOD2:LUCIFERASE (PER2:LUC) reporter assays, C2C12 myoblast cells were first infected with PER2:LUC-expressing lentivirus (gift of A. Liu, University of Memphis) (18454201) and maintained in DMEM that included 10% FBS and 2.5 μg/ml blastocidin to select for stable Per2-luc integration. Myoblasts were then differentiated for 5 days with 2% horse serum, and then synchronized in 50% horse serum for 2 hours.

[2] = system: Bmal1−/− Beta TC-6 cells; assay: High throughput insulin-NanoLuc screen for drugs that restore glucose-stimulated insulin secretion; format: cell-based, mouse; settings: 10 uM compound + 20 mM glucose, 1 hr
Procedure: A high throughput screen was used to identify small molecule drugs capable of restoring glucose-stimulated insulin secretion in clock-deficient beta cells. Bmal1^−/− beta cells and primary islets display reduced glucose-stimulated insulin secretion (GSIS) and that agonists of Gq-coupled muscarinic receptor and diacyl glycerol (DAG) signaling rescue secretion to that of wild type cells. Compounds to augment GSIS in Bmal1^−/− cells were identified by adding compounds in combination with 20 mM glucose and using the DAG mimetic Phorbol 12-myristate 13-acetate (PMA), which rescues GSIS in these cells, as a positive control. The spectrum collection small molecule compound library (MicroSource Discovery Systems, Inc) consisting of 2700 known drugs and drug-like molecules was screened for compounds that augment insulin secretion in Bmal1^−/− Beta TC-6 cells. Insulin Nanoluc expressing Bmal1^−/− Beta TC-6 cells (30,000 cells/well) were plated in 384 well plates and cultured for 4 days at 37° C. with 5% CO2. Prior to the assay, cells were washed once with KRB buffer containing 0 mM glucose and starved in glucose-free KRB buffer for 1 hour. After aspirating, KRB buffer containing 20 mM glucose in addition to small molecules (10 uM) were added, and the cells were incubated for 1 hour. As a negative control, 16 wells received only 20 mM glucose, which fails to elicit insulin secretion in Bmal1^−/− cells, and an additional 16 wells received KRB buffer containing 20 mM glucose and 10 μM PMA, which is known to induce insulin secretion in Bmal1^−/− mouse islets and Beta TC-6 cells. After 1 hour, the supernatant was collected and centrifuged at 500G for 30 min. The supernatant was transferred into a fresh 384-well assay plate containing Nano-Glo Luciferase Assay Substrate (Promega) and luciferase intensity was measured by EnSpire Plate Reader (PerkinElmer) Intensity was measured within 30 minutes.
Z scores for luciferase intensities produced by screened compounds were calculated from the following formula: z=(X−μ)/σ where z is the z-score, X is intensity of compounds, μ is the intensity of negative control (20 mM glucose), and σ is the standard deviation of negative control. Hit compounds were defined as those that elicited a response of more than 3 standard deviations from the mean (Z score>3). Hit Compounds
The Spectrum Collection small molecule compound library (MicroSource Discovery Systems, Inc), which consists of 2700 known drugs and drug-like molecules, was screened for compounds that augment insulin secretion in Bmal1^−/− Beta TC-6 cells. Insulin Nanoluc-expressing Bmal1^−/− Beta TC-6 cells (30,000 cells/well) were placed into 384 well plates and cultured for 4 days at 37° C. and 5% CO2. The cells were washed once and starved in KRB buffer containing 0 mM glucose for 1 hr. After removing the KRB, KRB buffer containing 20 mM glucose in addition to the small molecules (10 uM) were added, and the cells were incubated for 1 hr. As a negative control, 16 wells received KRB buffer with only 20 mM glucose, which fails to elicit insulin secretion in Bmal1^−/− cells, and as a positive control, 16 wells received KRB buffer containing 20 mM glucose and 10 μM PMA, which is known to induce insulin secretion in both Bmal1^−/− mouse islets and Beta TC-6 cells. After 1 hr, the supernatant was collected and centrifuged at 500 g for 30 min. The supernatant was transferred into a fresh 384-well assay plate containing Nano-Glo Luciferase Assay Substrate (Promega), and luciferase intensity was measured by EnSpire Plate Reader (PerkinElmer) within 30 minutes.
Z scores for luciferase intensities produced by screened compounds were calculated from the following formula: z=(X−μ)/σ (where z is the Z score, X is the intensity of the compounds, μ is the intensity of negative control (20 mM glucose), and a is the standard deviation of negative control). A row-based correction factor was applied to all luciferase readings to adjust for logarithmic signal decay. […]

[3] = system: myotubes and MEFs; assay: Core clock gene expression after chemical hypoxia mimetic (qPCR); format: cell-based, mouse; settings: hypoxia induced with chemical mimetic CoCl2
Procedure: Total RNA was extracted from C2C12 and MEF cell pellets and snap-frozen mouse skeletal muscle tissue using Tri-Reagent (Molecular Research Center, Inc). For muscle tissue samples, tissue was homogenized using a TissueLyser II apparatus (Qiagen). cDNA was synthesized using the High Capacity cDNA Reverse Transcription kit (Applied Biosystems). Real-time PCR was performed and analyzed using a CFX384 (Biorad). PCR conditions were: 10 min at 95° C., then 35 cycles of 10 s at 95° C., 15 s at 60° C. Relative expression levels (normalized to 18S rRNA (C2C12 and MEF) or β-actin (skeletal muscle)) were determined using the comparative CT method.

[4] = system: wild-type βTC-6 cells; assay: Glucose-stimulated insulin secretion assay in Beta TC-6 cells (ELISA); format: cell-based, mouse; settings: for effect on glucose-stimulated insulin secretion and calcium flux (validation of hits): hit compounds at 10 and 100 μM, 0 or 20 mM glucose
Procedure: Beta TC-6 cells (300,000 cells/well) were seeded into poly-L-lysine-coated 24 well plates and cultured for 48-72 hrs at 37° C. and 5% CO2. The cells were washed once and incubated in KRB buffer containing 0 mM glucose for 1 hr. Cells were then treated for 1 hr with KRB buffer containing 0 or 20 mM glucose in the presence of hit compounds (including ivermectin, alexidine, and tomatine at final concentrations of 10 and 100 μM) or an equivalent volume of DMSO as a vehicle control. Supernatants were then collected and centrifuged at 500G for 30 min and assayed for insulin content by ELISA (Crystal Chem Inc). Cell lysates were harvested in acid-ethanol solution (0.18M HCl in 70% Ethanol), sonicated, and solubilized overnight at 4° C. before assaying total insulin content by ELISA. For insulin secretion assays following prolonged ivermectin treatment, cells were first treated with 10 μm ivermectin for 24 hrs prior to the 1 hr incubation with 0 mM glucose KRB buffer.

[5] = system: PdxCreER;Bmal1flx/flx islets; assay: Static insulin secretion assay in islets isolated from tamoxifen-treated PdxCreER;Bmal1flx/flx mice (ELISA); format: cell-based, mouse; settings: islets from tamoxifen-treated mutant vs control mice, stimulated 1 hour; 1 mM carbachol, 10 μM PMA, 10 μM ionomycin, 2.5 μM forskolin, 1 mM 8-Br-cAMP
Procedure: Mouse pancreatic islets were isolated via bile duct collagenase digestion (Collagenase P, Sigma) and Ficoll gradient separation and left to recover overnight (16 hours) at 37° C. in RPMI 1640 with 10% fetal bovine serum (FBS), 1% 1-glutamine, and 1% penicillin/streptomycin. For standard insulin release assays, five islets were statically incubated in Krebs-Ringer buffer (KRB) and stimulated for 1 hour at 37° C. with various glucose concentrations, 30 mM KCl, 2.5 μM forskolin, 1 mM 8-Br-cAMP, 10 mM 1-leucine+2 mM 1-glutamine, 1 mM carbachol, 10 μM PMA, or 10 μM ionomycin. Supernatant was collected and assayed for insulin content by enzyme-linked immunosorbent assay (ELISA; Crystal Chem Inc.). Islets were then sonicated in acid-ethanol solution and solubilized overnight at 4° C. before assaying total insulin content by ELISA. For rhythmic insulin release assays, islets were first synchronized with 10 μM forskolin (Sigma) for 1 hour and allowed to recover for 16 hours. Insulin secretion assays were then performed as above in individual groups of five islets every 4 hours for 72 hours (FIG. 5A). Human islets (obtained from IIDP) were cultured in RPMI 1640 with 10% human AB serum, 1% 1-glutamine, and 1% penicillin/streptomycin (see table in FIG. S4A for details of sex, age, BMI, and IIDP ID numbers of the three donors). For the rhythmic analysis of RNAs in murine and human islets, RNA was isolated (described below) in groups of 200 islets every 4 hours for 48 or 24 hours, respectively, starting 40 hours after forskolin synchronization (FIG. 5A).
For in vivo delivery of tamoxifen (Sigma, dissolved in corn oil), mice received three intraperitoneal (i.p.) injections of 200 μg tamoxifen/g body weight, administered every other day. Subsequent experiments were conducted 10 to 14 days after tamoxifen treatment. For in vitro administration of tamoxifen, isolated islets were incubated for 24 hours with […] tamoxifen (dissolved in ethanol) prior to transfer to complete media for 24 hours to recover. Islets were then synchronized with forskolin prior to insulin secretion assays as described above.

[6] = system: wild-type βTC-6 cells; assay: Calcium flux (Fura-2) after exposure to glucose and compound; format: cell-based, mouse; settings: ivermectin 10 μM with glucose
Procedure: BetaTC-6 cells were plated at a density of 100,000 cells per well in black 96-well plates with clear bottoms and cultured overnight at 37° C. and 5% CO2. Cells were then washed with BSA-free KRB buffer with no glucose and loaded with 5 μM Fura-2 (Invitrogen) and 0.04% Pluronic F-127 (Invitrogen) for 30 min at 37° C. Following a wash with BSA-free KRB, Fura-2 intensity was measured following injection of either glucose alone or indicated compounds. Cells were alternately excited with 340 nm and 380 nm wavelength light, and the emitted light was detected at 510 nm using a Cytation 3 Cell Imaging Multi-Mode Reader (Bio Tek) at sequential 30-second intervals. Raw fluorescence data were exported to Microsoft Excel and expressed as the 340/380 ratio for each well.

[7] = system: Beta-TC6 cells; assay: Intracellular calcium determination with Fura2-AM dye; format: cell-based, mouse; settings: Fura2-AM ratiometric, 10 μM ionomycin
Procedure: BetaTC-6 cells were plated at a density of 100,000 cells per well in black 96-well plates with clear bottoms and cultured overnight at 37° C. and 5% CO2. Islets were dispersed to single cells by incubating in 0.05% Trypsin-EDTA at 37° C. for 3 min and plated at a density of 100 islets per well in laminin-treated black 96-well plates with clear bottoms and cultured in complete media for 48 hours at 37° C. and 5% CO2. Cells were then washed with BSA-free KRB buffer with no glucose and loaded with 5 μM Fura-2 (Invitrogen) and 0.04% Pluronic F-127 (Invitrogen) for 30 min at 37° C. Following a wash with BSA-free KRB, Fura-2 intensity was measured after injection of either glucose or ionomycin (Sigma) to final concentrations of 20 mM or 10 μM, respectively. Cells were alternately excited with 340- and 380-nm light, and the emitted light was detected at 510 nm using a Cytation 3 Cell Imaging Multi-Mode Reader (Bio Tek) at sequential 30-s intervals. Raw fluorescence data were exported to Microsoft Excel and expressed as the 340/380 ratio for each well.

Compound | glucose-dependent insulin secretion in the absence of BMAL1 (hit compound) [2] | effect on glucose-stimulated insulin secretion and calcium flux (validation of hits) [4] | insulin secretion in PdxCreER;Bmal1flx/flx islets in response to secretagogue [5] | other results
COC(=O)CNC(=O)C(=O)OC [DMOG, dimethyloxalyl glycine] |  |  |  | period of PER2:LUC oscillations [1]: 23 h
CNC1(C)C2CCC(C2)C1(C)C (stereo not drawn) [mecamylamine hydrochloride] | stimulate glucose-dependent insulin secretion |  |  | 
[Cl][Co][Cl] [CoCl2, cobalt chloride] |  |  |  | expression of core clock genes [3]: increased expression of core clock genes
CCCCC(CC)CNC(=N)NC(=N)NCCCCCCNC(=N)NC(=N)NCC(CC)CCCC (stereo not drawn) [alexidine hydrochlodire] | stimulate glucose-dependent insulin secretion | impact both glucose-stimulated insulin secretion and calcium flux |  | 
C[N+](C)(C)CCOC(N)=O [carbachol] | stimulate glucose-dependent insulin secretion |  | restored insulin secretion | 
ivermectin | stimulate glucose-dependent insulin secretion | impact both glucose-stimulated insulin secretion and calcium flux |  | calcium flux in wild-type βTC-6 cells [6]: enhances glucose-stimulated insulin secretion and calcium flux; glucose-stimulated insulin secretion in wild-type βTC-6 cells ([4]; acute or prolonged exposure, presence or absence of glucose): enhances glucose-stimulated insulin secretion
Nc1ncnc2c1nc(Br)n2[C@@H]1O[C@@H]2COP(=O)(O)O[C@H]2[C@H]1O [8-br-cAMP] |  |  | secreted significantly less insulin than controls | 
C[C@H](CCC(=O)O)C[C@H](C)C[C@H](C)C(=O)/C=C(\O)[C@H](C)C[C@H](C)C/C=C/[C@@H](C)[C@@H](O)[C@@H](C)[C@@H](O)C[C@@H]1CC[C@@](C)([C@H]2CC[C@@](C)([C@@H](C)O)O2)O1 [ionomycin] |  |  | significantly reduced in mutants | intracellular Ca2+ [7]: raised intracellular Ca2+
CCCCCCCCCCCCCC(=O)O[C@@H]1[C@@H](C)[C@@]2(O)[C@@H](C=C(CO)C[C@]3(O)C(=O)C(C)=C[C@@H]23)[C@@H]2C(C)(C)[C@]12OC(C)=O [PMA, phorbol 12-myristate 13-acetate] | rescues GSIS |  | restored insulin secretion | 
C[C@H]1CC[C@]2(NC1)O[C@H]1C[C@H]3[C@@H]4CC[C@H]5C[C@@H](O[C@@H]6O[C@H](CO)[C@H](O[C@@H]7O[C@H](CO)[C@@H](O)[C@H](O[C@@H]8OC[C@@H](O)[C@H](O)[C@H]8O)[C@H]7O[C@@H]7O[C@H](CO)[C@@H](O)[C@H](O)[C@H]7O)[C@H](O)[C@H]6O)CC[C@]5(C)[C@H]4CC[C@]3(C)[C@H]1[C@@H]2C [tomatine] | stimulate glucose-dependent insulin secretion | impact both glucose-stimulated insulin secretion and calcium flux |  | 
